The record followed here is PMC9368490, “Exploring the Molecular Interactions of Symmetrical and Unsymmetrical Selenoglycosides with Human Galectin-1 and Galectin-3” (International Journal of Molecular Sciences, 2022).

The target of assay [1] is T1, Gal-3^CRD (Homo sapiens, UniProt P17931).
T1 construct: gene LGALS3
Put plainly: biochemical.

Assay [2] concerns the target T2, Gal-1 (Homo sapiens, UniProt P09382).
T2 construct: gene LGALS1
In words: biochemical.

T2 sequence (P09382 whole entry): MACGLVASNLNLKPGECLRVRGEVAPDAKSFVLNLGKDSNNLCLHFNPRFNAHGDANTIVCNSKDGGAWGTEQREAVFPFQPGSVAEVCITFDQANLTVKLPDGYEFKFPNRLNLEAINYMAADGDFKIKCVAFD
T1 sequence (P17931 112-250): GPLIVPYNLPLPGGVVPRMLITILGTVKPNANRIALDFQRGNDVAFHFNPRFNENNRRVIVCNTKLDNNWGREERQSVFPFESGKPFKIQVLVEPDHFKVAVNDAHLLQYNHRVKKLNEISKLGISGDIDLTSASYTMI

Take `OC[C@H]1O[C@@H]([Se][C@@H]2O[C@H](CO)[C@H](O)[C@H](O)[C@H]2O)[C@H](O)[C@@H](O)[C@H]1O` [SeDG]: the values for the Kd in assay [1] and in assay [2] were 20.2 ± 2.2 µM and 23.7 ± 4.2 µM, respectively.
